Experiments:
Assay type in all cases: cell-based
[1] = tested on: HaCaT cells; test: Resistance to UVB-induced cell damage (CCK-8 viability); settings: 1 μM, UVB 500 mJ/cm2, serum-free medium, negative control about 40%
Method: Among the ultraviolet wavelengths, UVB wavelengths corresponding to 280 to 315 nm penetrate the epidermal layer where many keratinocytes exist to cause cell damage.
The solvent DMSO was used as a negative control group, and the cell viability was measured using the CCK-8 method used in Experimental Example 6.

[2] = tested on: HaCaT cells; test: MTT cytotoxicity assay in HaCaT keratinocytes
Method: The cytotoxicity of Isoprocurcumenol was measured using HaCaT cells as keratinocytes.
When cells are treated with MTT tetrazolium which is a yellow water-soluble substrate, such a substrate is reduced to MTT formazan by mitochondrial enzymes, and the color changes to blue-purple. That is, since the blue-violet color appears darker as the number of living cells increases, the blue-violet absorbance at a wavelength of 540 nm reflects the concentration of living cells.
Specifically, after culturing cells to fill each well of a 96-well plate, the cells were treated with Isoprocurcumenol at concentrations of 0, 10, 25, 50 and 100 μM, and cultured for 24 hours and 48 hours in a 5% CO2 incubator at 37° C. Thereafter, cell viability was measured using MTT reagent. A control group not treated with Isoprocurcumenol (0 μM) was treated with the same amount of the solvent DMSO.

[3] = tested on: c-myc; test: c-myc gene expression by real-time quantitative PCR in HaCaT cells; settings: 10 μM, 1 hour, serum-free medium
Excerpt: (§1) Signaling by an EGFR induces the expression of genes important for cell growth and survival through important signaling mediator proteins such as ERK and AKT. The egr1, c-myc, c-jun and c-fos genes are regulated by the EGFR and are well known as genes that promote cell growth and survival.
(§2) Specifically, Tri-reagent was used for mRNA extraction, cDNA was created by a reverse transcription polymerase chain reaction (RT-PCR) using a poly-A primer and a reverse transcriptase, and real-time quantitative PCR was used to measure the amount of each mRNA. The amount of each mRNA was corrected with the amount of β-actin, which is a constitutive gene.

[4] = tested on: HaCaT cells; test: Wound healing assay; settings: 1 μM
Method: The cell growth promoting effect of Isoprocurcumenol was confirmed through wound healing assay. Specifically, after fully culturing HaCaT cells in a 12-well plate, cells on a certain area were scraped off using a yellow tip to form a wound area, changed to a serum-free medium, and treated with 1 μM of Isoprocurcumenol.

[5] = tested on: HaCaT cells; test: CCK-8 assay of growth and proliferation of keratinocytes; settings: 24 hours, serum-free medium, p<0.05
Method: Cell counting kit-8 (CCK-8) is a water-soluble tetrazolium salt reagent called WST-8 and forms orange-colored water-soluble Formazan by dehydrogenase in the mitochondria of living cells.
Specifically, after culturing 1×10^4 HaCaT cells in a 96-well plate for 24 hours, the cells were changed to a serum-free medium to remove the growth factors contained in the medium, and treated with Isoprocurcumenol at the concentrations of 1 nM, 10 nM, 100 nM, 1 μM and 10 μM. […] After cultured for 24 hours, the cells were treated with CCK8, and the cell growth was analyzed by measuring absorbance at 450 nm.

[6] = biological target: EGFR (Homo sapiens, UniProt P00533); test: EGFR activity measurement biosensor system (EGFP-SH2 fluorescence); settings: 100 μM; cells cultured 24 hours in serum-free medium; compared to DMSO control
Method: In addition, by using the feature that, when the activities of the EGFR continue to be maintained, the EGFR is internalized into the cell, the cell of the biosensor system that may measure the activities of the EGFR was used in the present experimentation (see Korean Laid-open Patent Publication No. 2019-0014340).
After culturing the cells in a serum-free medium for 24 hours, the cells were treated with Isoprocurcumenol.

[7] = tested on: AKT; test: AKT activation (phosphorylation) by Western blotting in HaCaT cells; settings: 10 μM
Method: (§3) It is well known that the activities of extracellular signal-regulated kinase (ERK) and protein kinase B (AKT) transmit signals necessary for cell growth and survival by the activities of an EGFR. In addition, in Experimental Example 1, it was observed that Isoprocurcumenol generated signals due to activation of the EGFR in the cells of the biosense system for measuring the activities of the EGFR. Accordingly, it was measured whether the activities of the EGFR were induced by Isoprocurcumenol to the activities of the ERK and AKT.
(§4) Specifically, HaCaT cells were cultured in a serum-free medium, treated with 10 μM of Isoprocurcumenol for 10 minutes, 30 minutes and 60 minutes, respectively, and, thereafter, phosphorylated and activated ERK and AKT were analyzed by Western blotting. As antibodies, a phosphorylation antibody as a marker of activated ERK and AKT, and a general antibody for measuring all thereof were used, respectively.

[8] = tested on: c-jun; test: c-jun gene expression by real-time quantitative PCR in HaCaT cells; settings: 10 μM, 1 hour, serum-free medium
Excerpt: as §1, §2

[9] = tested on: c-fos; test: c-fos gene expression by real-time quantitative PCR in HaCaT cells; settings: 10 μM, 1 hour, serum-free medium
Excerpt: as §1, §2

[10] = tested on: ERK; test: ERK activation (phosphorylation) by Western blotting in HaCaT cells; settings: 10 μM
Method: as §3, §4

[11] = tested on: egr1; test: egr1 gene expression by real-time quantitative PCR in HaCaT cells; settings: 10 μM, 1 hour, serum-free medium
Excerpt: as §1, §2

EGFR, sequence (P00533 25-1210, species assumed): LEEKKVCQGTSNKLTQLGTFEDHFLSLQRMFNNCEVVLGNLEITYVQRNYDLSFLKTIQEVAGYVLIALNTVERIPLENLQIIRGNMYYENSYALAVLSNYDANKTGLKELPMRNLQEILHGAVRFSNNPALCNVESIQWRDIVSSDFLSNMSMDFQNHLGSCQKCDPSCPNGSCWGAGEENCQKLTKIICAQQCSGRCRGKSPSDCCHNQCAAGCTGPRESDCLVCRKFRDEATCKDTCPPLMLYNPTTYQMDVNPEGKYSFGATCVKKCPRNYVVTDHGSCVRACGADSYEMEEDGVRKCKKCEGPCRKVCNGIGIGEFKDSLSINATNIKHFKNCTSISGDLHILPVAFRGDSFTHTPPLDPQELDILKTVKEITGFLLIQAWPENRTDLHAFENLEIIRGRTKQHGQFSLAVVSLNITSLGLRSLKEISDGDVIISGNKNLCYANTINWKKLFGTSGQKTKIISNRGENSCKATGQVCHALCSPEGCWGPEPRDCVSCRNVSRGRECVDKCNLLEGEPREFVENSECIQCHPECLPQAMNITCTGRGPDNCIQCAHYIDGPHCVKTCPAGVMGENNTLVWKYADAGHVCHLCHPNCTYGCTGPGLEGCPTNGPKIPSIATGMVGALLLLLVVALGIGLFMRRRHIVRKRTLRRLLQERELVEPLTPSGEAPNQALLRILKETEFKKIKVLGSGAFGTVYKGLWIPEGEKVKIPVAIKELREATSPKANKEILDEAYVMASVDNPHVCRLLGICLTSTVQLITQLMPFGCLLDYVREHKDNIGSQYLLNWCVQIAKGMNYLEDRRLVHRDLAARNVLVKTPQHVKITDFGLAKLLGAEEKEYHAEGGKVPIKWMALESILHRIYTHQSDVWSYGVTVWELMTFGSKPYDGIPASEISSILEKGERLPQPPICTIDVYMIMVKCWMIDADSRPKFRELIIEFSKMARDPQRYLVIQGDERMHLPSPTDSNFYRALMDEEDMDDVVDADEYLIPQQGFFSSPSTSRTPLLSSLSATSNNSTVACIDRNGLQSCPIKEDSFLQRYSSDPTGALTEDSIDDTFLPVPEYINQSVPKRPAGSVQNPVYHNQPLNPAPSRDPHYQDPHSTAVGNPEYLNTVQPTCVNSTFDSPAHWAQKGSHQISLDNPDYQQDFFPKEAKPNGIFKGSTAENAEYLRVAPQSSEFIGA

EGFR activation (fluorescence signal of biosensor cells) [6]: activated
Compound: C=C1CC(=O)C(=C(C)C)C[C@H]2[C@H]1CC[C@]2(C)O [Isoprocurcumenol]
cells survived after UVB [1]: about 60%
cytotoxicity in keratinocytes (overall) ([2]; 0-100 μM, 24 hours and 48 hours, MTT): very low
cytotoxicity (difference in cell viability) ([2]; 100 μM, cultured 48 hours, MTT): 10%
cytotoxicity ([2]; concentration of 10 μM or less): free of cytotoxicity
c-myc mRNA (corrected with β-actin) [3]: increased
filling of wound area vs negative control ([4]; culture for 6 days, serum-free medium): more quickly filled
difference in wound area vs negative control ([4]; from the 3rd day, t-test p<0.05): more significant difference
growth and proliferation of cells vs negative control ([5]; 10 nM): significantly increased
growth and proliferation of cells vs negative control ([5]; 100 nM): significantly increased
growth and proliferation of cells vs negative control ([5]; 1 μM): significantly increased
growth and proliferation of cells vs negative control ([5]; 10 μM): significantly increased
time to AKT activation [7]: ≤ 30 min
induction of AKT activity ([7]; 10 minutes, serum-free medium): sufficiently induced
c-jun mRNA (corrected with β-actin) [8]: increased
c-fos mRNA (corrected with β-actin) [9]: increased
time to ERK activation [10]: ≤ 30 min
induction of ERK activity ([10]; 10 minutes, serum-free medium): sufficiently induced
egr1 mRNA (corrected with β-actin) [11]: increased

Reference: patent US20230320957A1, “COMPOSITION FOR ANTI-AGING OR SKIN REGENERATION COMPRISING ISOPROCURCUMENOL” (POSCO, priority 2020, published 2023)
